In patent US12109253B2, “Use of IGFBP7 for treating malaria” (AGENCY FOR SCIENCE, TECHNOLOGY AND RESEARCH, priority 2019, dated 2024):
Several values for one entry are separate records, joined by “and”; a condition that tells them apart may be missing. Equal entries are not always repeated.

Columns and labels:
[1] = system: cytoadhesive properties of infected erythrocytes; details: adjunct treatment candidate, phase II clinical trial; cited from earlier work
P. falciparum = experiment: Rosetting assay (percentage of IRBC that form rosettes), P. falciparum; format: cell-based, Plasmodium falciparum; details: for effect on rosetting rates of TSP-1 and VWF without IGFBP7: Albumax-supplemented medium, TSP-1 and VWF present together
Method: (§1) Rosetting assay was conducted when 70% of the parasite population reached late stages (late trophozoites and schizonts) unless stated otherwise. The parasite culture suspension was stained subvitally with Giemsa (5% stain working concentration) for 20 minutes. Subsequently, 7.6 μl stained suspension was pipetted onto a clean glass slide, immediately covered with a 22×32 mm glass cover slip. The wet mount was examined with light microscope using 1000× magnification. Rosetting rate (percentage of rosetting IRBCs) was defined as the percentage of IRBC (over 200 recruited IRBC) that form rosettes. Experiments were conducted in blinded manner.
(§2) Following data review, coupled with critical information (i.e. the protein's subcellular location and cellular functions) from UNIPROT, candidates were shortlisted for further validation. The parasite culture suspensions were incubated with CSMT and antibodies against the shortlisted proteins (see Table 6, items 35, 37, 39-41) and tested in rosetting assay at a final concentration of 25 μg/ml.
(§3) The parasite culture suspension was divided into three groups, one served as control, the second group was added with recombinant human IGFBP7 (final concentration 100 ng/ml), and the third group was mixed with CSMT (CSMT:parasite culture=1:3). After one hour of incubation under in vitro cultivation conditions, rosetting assay was conducted. Separately, a portion of the IGFBP7 suspension was heat-denatured at 95° C. for one hour, prior to use in rosetting assay.
(§4) Parasite cultures were incubated with IGFBP7 (working concentrations 0-25,000 ng/ml) prior to rosetting assay. Time course experiments were performed with laboratory-adapted P. falciparum lines (3D7, MKK183, FVT402, FVT201, WPP3065) incubated with IGFBP7 (100 ng/ml). Rosetting assay was conducted after five minutes, using 7 μl of the suspension. The remaining suspension was kept back into the incubator. Rosetting assay was repeated at five minute-intervals until one hour-post-IGFBP7 exposure. Reversibility of IGFBP7-mediated rosette-stimulation was also tested. Parasite lines (3D7, MKK183, FVT402, FVT201, WPP3065) were incubated with IGFBP7 (100 ng/ml) and rosetting assay was conducted with 7 μl of the suspension. The remaining suspension was centrifuged at 1500 g for five minutes. Supernatant was removed, and the pellet was washed thrice with culture medium, followed by re-suspension with culture medium. Five minutes later, 7 μl of the suspension was taken for rosetting assay, subsequently repeated at five minute-intervals up to one-hour post-IGFBP7 removal.
(§5) Magnetic activated cell sorter (MACS)-sorted late stage-IRBC (purity 95%) were trypsinized at different working concentrations. The first group was mixed with enzyme trypsin (final trypsin concentration of 10 μg/ml), and the second was mixed with enzyme trypsin (final trypsin concentration of 1 mg/ml). The third served as untreated control. The cells were incubated at 37° C. for 30 minutes. After that, the cells were washed with serum-enriched medium for three times. Each group was incubated with or without IGFBP7 (100 ng/ml) prior to rosetting assay. P. falciparum line CS2 deficient of SBP1 [(SBP1-KO-CS2), which lacks P. falciparum erythrocyte membrane protein 1 (PFEMP1) on its IRBC surface] and its wild type (CS2-WT) counterpart were cultured as described. Their rosetting rates post-incubation with IGFBP7 at different concentrations were determined. P. falciparum clones NF54 VAR2CSA_WT and NF54_T934D (cannot express PfEMP1 variant VAR2CSA on IRBC surface^32) were cultivated. Experiments were conducted when parasite population reached late stages. For each parasite line, two conditions were applied; one was incubated with IGFBP7 (100 ng/ml) whereas the other one acted as IGFBP7-free control. Rosetting assay was conducted afterwards. Five replicates were conducted for each experiment setting. […]

hCMEC/D3 = experiment: IRBC-endothelial cytoadhesion to hCMEC/D3; format: cell-based, Plasmodium falciparum
Description: Following this we investigated the relationship between IGFBP7, rosetting and IRBC-endothelial cytoadhesion. As expected, IGFBP7 stimulated rosetting of the recruited laboratory-adapted P. falciparum. […] How about the already endothelial-cytoadhered IRBCs? […] Clearly, presence of IGFBP7 interfered with the dynamics between IRBC-endothelial cytoadhesion and IRBC-rosetting.
Is the IGFBP7-induced reversal of IRBC-endothelial cytoadhesion mediated via the IGFBP7-stimulated rosetting? Or are the two events occurring concomitantly? […] The two events are likely to happen in parallel instead of being a cause-effect relationship.

P. vivax = experiment: Rosetting assay (percentage of IRBC that form rosettes), P. vivax; format: cell-based, Plasmodium vivax
Method: as §1, §2, §3, §4, §5

THP-1 [2] = experiment: Zymosan A phagocytosis by THP-1 (control experiment); format: cell-based, human; details: IGFBP7 100 ng/ml one hour, then Zymosan A 10 μg/ml one hour
Method: THP-1 is cultivated and expanded into three batches. For each batch of culture, 1×10^6 cells were incubated with IGFBP7 (working concentration 100 ng/ml) for one hour at in vitro cultivation conditions. Another set of cells acted as IGFBP7-free control. Subsequently, Zymosan A (working concentration 10 μg/ml) was added to both sets of cells and incubated for another one hour at in vitro cultivation conditions. Supravital staining with Giemsa was done for 15 minutes following this. Using wet mount technique, the percentage of THP-1 cells which has engulfed Zymosan A was determined as phagocytosis rate by recruiting 1,000 THP-1 cells. The experiment was repeated with the other two batches of THP-1 culture. And all the steps were repeated for another two times using THP-1 cultures thawed at different time points. P. falciparum lines (3D7, MKK183, FVT402, FVT201, CS2_WT) were incubated with or without IGFBP7 in serum-enriched medium prior to rosetting assay. Subsequently, THP-1 were added. Using wet mount technique, the IRBC phagocytosis rates were determined following the same formula to determine phagocytosis rate in the Zymosan A experiment. […]

[3] = system: Plasmodium berghei ANKA line expressing luciferase (PbAluc); experiment: Experimental cerebral malaria (ECM) in PbAluc infected C57BL/6 mice; format: in vivo
Method: Here, we set out to determine the effect of IGFBP7 administration on mice. In particular, we set out to determine the dose and protection from ECM death of mouse IGFBP7 administered i.v. on days 5-12 post-infection (dpi) to Plasmodium berghei ANKA line expressing luciferase (PbAluc) infected C57BL/6 mice.
IGFBP7 was suspended in 1×PBS (concentrations: 0, 50, 100, 200, 1000, and 5000 ng/ml). A separate aliquot of IGFBP7 (5000 ng/ml) was prepared and boiled for one hour, to be used as control.
For each protein concentration group, I.V. administration of 100 μl per mouse was done.
Mice were infected with PbAluc. Prior to infection, an aliquot of serum was collected for each mouse using blood collected through orbital bleeding. Sera were also collected on days 3 and 6 post-infection (dpi) for further testing in future.
I.V. administration was done on daily basis from 5-12 dpi. The n number for each concentration group was 8 except group 5 ng/mouse (n=7) and group 500 ng/mouse (n=5).
The mice were monitored daily, and their signs and symptoms were observed. Dead mice were removed.
Survival of mice within the experimental cerebral malaria (ECM) period (6-12 dpi) across the experimental groups was recorded.
Mice that survived the ECM period were monitored until their death by malaria-induced anemia.

THP-1 [4] = experiment: IRBC phagocytosis by THP-1; format: cell-based, human
peripheral monocytes = experiment: IRBC phagocytosis by CD14+ peripheral monocytes; format: cell-based, human; details: IGFBP7 100 ng/ml, Pf line NHP1106, biological replicates
[5] = Albumax-supplemented medium with IGFBP7 100 ng/ml and TSP-1 10 ng/ml

## Curdlan sulfate
[1]
  effect on pathology of patients: reduce the severe pathology development

## TSP-1: rhTSP-1 (thrombospondin-1), serum co-factor of IGFBP7-mediated rosetting
P. falciparum
  effect on rosetting rates of TSP-1 and VWF without IGFBP7: could not increase the rosetting rates
P. falciparum; serum-free (Albumax-supplemented medium), IGFBP7 100 ng/ml, with VWF
  TSP-1 concentration enough to optimally facilitate IGFBP7-mediated rosette-stimulation: 10 ng/mL

## VWF: Recombinant human VWF (rhVWF), serum co-factor of IGFBP7-mediated rosetting
P. falciparum; [5]
  VWF concentration at which optimal increment attained: 0.5 IU/ml
  VWF concentration sufficient to significantly increase rosetting rates: 0.125 IU/ml
P. falciparum
  effect on rosetting rates of TSP-1 and VWF without IGFBP7: could not increase the rosetting rates
P. falciparum; VWF 1 IU/ml, no IGFBP7, 20% and 2% serum medium
  effect of VWF by itself on rosetting: did not stimulate rosetting

## insulin-like growth factor binding protein 7 [IGFBP7]
hCMEC/D3; incubation of cytoadhering IRBCs with IGFBP7
  cytoadhesion of already hCMEC/D3-cytoadhering IRBCs: reduced IRBC-endothelial cytoadhesion
hCMEC/D3; rosette-stimulated cells then co-incubated with hCMEC/D3, vs non-IGFBP7-primed
  IRBC-endothelial cytoadhesion of IGFBP7-primed packed cells: lower rate of IRBC-endothelial cytoadhesion
P. falciparum; 0.25% Albumax II medium, IGFBP7 100 ng/ml, VWF 0-2.0 IU/ml, no TSP-1
  effect on rosetting rates with VWF in Albumax medium: did not significantly increase rosetting rates
P. falciparum; 20% human serum filtered with 0.45 μm filter, IGFBP7 100 ng/ml
  IGFBP7-induced rosetting in filtered serum: abolished
P. falciparum; 95° C. for one hour, Pf n=5
  rosette-stimulating capacity after heat denaturation: abolished
P. falciparum; CS2 wild-type parasite
  effect on rosetting rate: increased
P. falciparum; IRBC treated with 10 μg/ml or 1 mg/ml trypsin, IGFBP7 100 ng/ml, Pf n=5
  effect on rosetting of trypsin-treated IRBC: did not significantly alter rosetting
P. falciparum; NF54 T934D (no VAR2CSA on IRBC surface), IGFBP7 100 ng/ml, one hour, biological replicates
  rosetting rates: 0.5% (2×) and 1.5% (2×) and 1.0%
P. falciparum; NF54 VAR2CSA_WT, IGFBP7 100 ng/ml, one hour, biological replicates
  rosetting rates: 5.0% and 7.0% and 4.5% and 4.0% and 6.5%
P. falciparum; Pf co-incubated with THP-1, IGFBP7 100 ng/ml, biological replicates
  rosetting rates: 11.0% and 13.0% and 16.0% and 9.0% and 10.0%
P. falciparum; Pf co-incubated with monocytes, IGFBP7 100 ng/ml, biological replicates
  rosetting rates: 14.0% and 18.0% and 15.0% and 17.0% and 10.0%
P. falciparum; Pf n=7, one hour incubation, 0-25,000 ng/ml tested
  concentration at which significant rosette-stimulation noted: 50 ng/mL
P. falciparum; PfCS2-WT
  concentration from which significant rosette-stimulation was noted: 100 ng/mL
P. falciparum; SBP1-KO-CS2 (no PfEMP1 on IRBC surface)
  effect on rosetting rate: no effect
P. falciparum; URBC groups A, B, O, AB, rhIGFBP7 100 ng/ml, Pf n=7
  effect on rosetting with URBC of different ABO blood groups: significantly increase rosetting rates regardless of the blood groups
P. falciparum; URBC treated with heparinase I or III 25 μg/ml, purified Pf IRBC
  rosetting with heparinase-treated URBC: did not induce rosetting
P. falciparum; after co-incubation with URBCs and IGFBP7, all parasite lines recruited
  rosetting rates of IRBCs detached from hCMEC/D3: 5-25%
P. falciparum; five different P. falciparum lines, IGFBP7-incubated
  rosette formation prior to THP-1 exposure: formed more rosettes
P. falciparum; lab-adapted Pf n=5, IGFBP7 100 ng/ml
  minimum time to significantly stimulate rosetting: ≥ 15 min
P. falciparum; lab-adapted Pf n=5, after IGFBP7 100 ng/ml exposure and washing
  time after protein removal at which rosetting rates revert to baseline: 15 min
P. falciparum; late ring stages (hour 16-26) of NHP1106, IGFBP7 100 ng/ml, replicates flask/cycle
  rosetting rates: 8.5% and 7.0% (2×) and 8.0% (2×) and 6.0% (3×) and 5.0%
P. falciparum; leukocyte-free parasite culture, P. falciparum isolates
  concentration at which rosette stimulation reaches a plateau: 100 ng/mL
P. falciparum; medium with only 2% serum, IGFBP7 100 ng/ml, no VWF added
  effect on rosetting rates in 2% serum: could not increase rosetting rates
P. vivax; 95° C. for one hour, Pv n=4
  rosette-stimulating capacity after heat denaturation: abolished
P. vivax; IRBC treated with 10 μg/ml or 1 mg/ml trypsin, IGFBP7 100 ng/ml, Pv n=4
  effect on rosetting of trypsin-treated IRBC: did not significantly alter rosetting
P. vivax; Pv n=7, one hour incubation, 0-25,000 ng/ml tested
  concentration at which significant rosette-stimulation noted: 50 ng/mL
P. vivax; URBC groups A, B, O, AB, rhIGFBP7 100 ng/ml, Pv n=7
  effect on rosetting with URBC of different ABO blood groups: significantly increase rosetting rates regardless of the blood groups
P. vivax; URBC treated with heparinase I or III 25 μg/ml, purified Pv IRBC
  rosetting with heparinase-treated URBC: did not induce rosetting
P. vivax; leukocyte-free parasite culture, P. vivax isolates
  concentration at which rosette stimulation reaches a plateau: 100 ng/mL
THP-1 [2]
  effect on phagocytosis ability of THP-1: increased
[3]; 10, 20, 100, and 500 ng/mouse i.v. daily 5-12 dpi, vs denatured IGFBP7
  ECM death compared with control group: significantly lower ECM death
[3]; 10, 20, 100 and 500 ng/mouse i.v. daily 5-12 dpi, vs denatured 500 ng/mouse IGFBP7, till 25 dpi
  survival rate compared with control: significant difference in survival rate
[3]; groups 10, 20, 100 and 500 ng/mouse, after 8 dpi
  signs of cerebral malaria: reversal of CM signs
[3]; i.v. daily 5-12 dpi
  dose adequate to confer protection from cerebral malaria: 10 ng/mouse
THP-1 [4]; THP-1, IGFBP7 100 ng/ml, Pf line NHP1106, biological replicates
  phagocytosis rates: 10.0% (2×) and 5.0% and 11.0% and 8.0%
THP-1 [4]; five different P. falciparum lines, IGFBP7-incubated prior to THP-1 exposure
  IRBC phagocytosis compared with non-IGFBP7-exposed counterparts: significantly less phagocytosed
Peripheral monocytes
  phagocytosis rates: 6.0% and 10.0% and 9.0% and 11.0% and 4.0%
